Two compounds from ChEMBL document CHEMBL1157536, “Improvement of meta-tetra(hydroxyphenyl)chlorin-like photosensitizer selectivity with folate-based targeted delivery. synthesis and in vivo delivery studies” (J Med Chem, 2008) can be followed below.

Holding throughout (conditions): in vivo
Series [1] can be described thus: Ratio of drug uptake in tumor to skin in folate receptor deficient HT29 cells xenografted athymic Swiss nude mouse with folate free diet assessed as fluorescence accumulation by UV-visible spectrophotometer. Format: ADME, cell-based, HT-29.
The nature of series [2]: Ratio of drug uptake in tumor to skin in human KB cells expressing folate receptor xenografted athymic Swiss nude mouse with folate free diet assessed as fluorescence accumulation by UV-visible spectrophotometer. Format: ADME, cell-based. In general terms: In xenograft studies the graft and the host belong to different species.
Series [3] in a line: Ratio of drug uptake in tumor to skin in human KB cells expressing folate receptor xenografted athymic Swiss nude mouse with folate diet assessed as fluorescence accumulation by UV-visible spectrophotometer. The series is classed as ADME, cell-based.
A short description of series [4]: Ratio of drug uptake in tumor to skin in folate receptor deficient HT29 cells xenografted athymic Swiss nude mouse with folate diet assessed as fluorescence accumulation by UV-visible spectrophotometer. The series is classed as ADME, cell-based, HT-29.

Each structure is given as a SMILES string.

Take `Nc1nc(O)c2nc(CNc3ccc(C(=O)NC(CCC(=O)NCCOCCOCCNC(=O)c4ccc(-c5c6nc(c(-c7cccc(O)c7)c7ccc([nH]7)c(-c7cccc(O)c7)c7nc(c(-c8cccc(O)c8)c8ccc5[nH]8)C=C7)CC6)cc4)C(=O)O)cc3)cnc2n1` (stereo not drawn): the Ratio is listed as 1 in series [1], 5 in series [2], 1.9 in series [3] and 2.1 in series [4].

Regarding `O=C(O)c1ccc(-c2c3nc(c(-c4cccc(O)c4)c4ccc([nH]4)c(-c4cccc(O)c4)c4nc(c(-c5cccc(O)c5)c5ccc2[nH]5)C=C4)CC3)cc1`, the Ratio in series [1] was determined as 3.7; in series [2] it was 2.1; in series [3] it was 2.8; in series [4], 1.1.
